In this assay the target is T1, LXRβ (Homo sapiens, UniProt P55055).
T1 construct: Co-transfection expression plasmids, comprising full-length LXRα (pCMX-h LXRα or LXRβ (pCMX-hLXRβ)); expressed in transfected cells; host or cells: CV-1 African green monkey kidney cells, transient transfection with pCMX-hLXRβ
T1 sequence (P55055 1-460): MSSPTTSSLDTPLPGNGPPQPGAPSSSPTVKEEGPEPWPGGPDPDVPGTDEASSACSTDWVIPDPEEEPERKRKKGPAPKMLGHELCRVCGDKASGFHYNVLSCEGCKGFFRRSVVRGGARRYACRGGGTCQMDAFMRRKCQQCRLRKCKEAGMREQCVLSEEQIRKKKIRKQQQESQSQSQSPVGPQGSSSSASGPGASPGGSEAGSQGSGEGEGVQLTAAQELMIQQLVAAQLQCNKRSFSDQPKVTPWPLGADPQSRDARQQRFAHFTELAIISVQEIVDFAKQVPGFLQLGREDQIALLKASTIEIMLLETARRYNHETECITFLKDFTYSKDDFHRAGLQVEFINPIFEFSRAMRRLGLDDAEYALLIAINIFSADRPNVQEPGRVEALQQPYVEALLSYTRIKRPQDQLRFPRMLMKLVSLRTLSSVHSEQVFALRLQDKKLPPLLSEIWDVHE
T1 sequence (P19793 1-462 partner): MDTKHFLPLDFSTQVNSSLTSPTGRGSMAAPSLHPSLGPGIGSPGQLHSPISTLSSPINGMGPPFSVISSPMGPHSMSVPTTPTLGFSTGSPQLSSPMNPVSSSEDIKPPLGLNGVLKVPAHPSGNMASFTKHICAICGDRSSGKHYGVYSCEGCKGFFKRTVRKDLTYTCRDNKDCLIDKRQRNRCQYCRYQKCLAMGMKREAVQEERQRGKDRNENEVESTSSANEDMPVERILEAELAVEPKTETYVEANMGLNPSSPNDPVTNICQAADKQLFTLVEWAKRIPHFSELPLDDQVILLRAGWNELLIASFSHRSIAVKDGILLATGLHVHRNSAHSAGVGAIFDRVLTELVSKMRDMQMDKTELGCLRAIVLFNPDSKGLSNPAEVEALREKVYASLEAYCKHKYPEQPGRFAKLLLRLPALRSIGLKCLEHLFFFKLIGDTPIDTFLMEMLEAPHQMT
In words: LXR/LXRE co-transfection assay (luciferase reporter) in CV-1 cells, LXRβ. To be noted: for pEC50: CV-1 cells transfected with pCMX-hLXRβ and LXREx1-Tk-Luciferase, 20 hours incubation, read-out: LXRbeta agonism EC50; for Emax: read-out: LXRbeta % EFFICACY
The format is cell-based. Put shortly: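 CV-1 cells transiently co-transfected with full-length human LXRβ, LXRE-Tk-luciferase reporter and β-galactosidase control, then exposed to compound (≤0.5% DMSO) for 20 h at 37 °C before luminescence read. EC50 from 10-point, half-log dose curves; efficacy relative to the sulfonamide high control, means of 2–3 experiments.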
(A reporter such as luciferase makes a cellular process visible.)

Where [1] appears, read: CV-1 cells, relative to maximum response of high control N-(3-((4-fluorophenyl)-(naphthalene-2-sulfonyl)amino)propyl)-2,2-dimethylpropionamide.

pEC50: −log10 of the molar value.

As usually defined, the pEC50 is the EC50 on a negative log10 scale, so that one unit is a factor of ten. Turning to `Cn1nc(C(F)(F)C(N)=O)cc1-c1ccc(-c2cc(F)c(CO)c(S(C)(=O)=O)c2)cc1-c1oc(C2CC2)nc1-c1ccc2c(c1)OC(F)(F)O2` [Example 46, 2-(5-(3-(2-cyclopropyl-4-(2,2-difluorobenzo[d][1,3]dioxol-5-yl)oxazol-5-yl)-3′-fluoro-4′-(hydroxymethyl)-5′-(methylsulfonyl)biphenyl-4-yl)-1-methyl-1H-pyrazol-3-yl)-2,2-difluoroacetamide], the pEC50 was 7.60. Further, the Emax under setting [1] came out at 45%.

Turning to `Cc1nc(-c2ccc3c(c2)OC(F)(F)O3)c(-c2cc(-c3cc(F)c(CO)c(S(C)(=O)=O)c3)ccc2-c2cc(C(F)(F)C#N)nn2C)o1` [Example 47, 2-(5-(3-(4-(2,2-difluorobenzo[d][1,3]dioxol-5-yl)-2-methyloxazol-5-yl)-3′-fluoro-4′-(hydroxymethyl)-5′-(methylsulfonyl)biphenyl-4-yl)-1-methyl-1H-pyrazol-3-yl)-2,2-difluoroacetonitrile], the pEC50 is 6.18. Further, under setting [1], the Emax was found to be 72%.

As for `Cc1nc(-c2ccc(OC(F)(F)F)cc2)c(-c2cc(-c3cccc(S(C)(=O)=O)c3)ccc2-c2cc(C(F)(F)C(C)(C)O)nn2C)o1` [Example 48, 1,1-difluoro-2-methyl-1-(1-methyl-5-(3-(2-methyl-4-(4-(trifluoromethoxy)phenyl)oxazol-5-yl)-3′-(methylsulfonyl)biphenyl-4-yl)-1H-pyrazol-3-yl)propan-2-ol], the pEC50 is 7.34. Besides, the Emax under setting [1] turned out to be 27%.

Turning to `Cc1nc(-c2ccc3c(c2)OC(F)(F)O3)c(-c2cc(-c3cccc(S(C)(=O)=O)c3)ccc2-c2cc(C(F)(F)CO)nn2C)o1` [Example 49, 2-(5-(3-(4-(2,2-difluorobenzo[d][1,3]dioxol-5-yl)-2-methyloxazol-5-yl)-3′-(methylsulfonyl)biphenyl-4-yl)-1-methyl-1H-pyrazol-3-yl)-2,2-difluoroethanol], the negative-log EC50 (pEC50) was 7.07. In addition, the “LXRbeta % EFFICACY” value under setting [1] is recorded as 69%.

On to `CNC(=O)C(F)(F)c1cc(-c2ccc(-c3cc(F)c(CO)c(S(C)(=O)=O)c3)cc2-c2oc(C)nc2-c2ccc3c(c2)OC(F)(F)O3)n(C)n1` [Example 50, 2-(5-(3-(4-(2,2-difluorobenzo[d][1,3]dioxol-5-yl)-2-methyloxazol-5-yl)-3′-fluoro-4′-(hydroxymethyl)-5′-(methylsulfonyl)biphenyl-4-yl)-1-methyl-1H-pyrazol-3-yl)-2,2-difluoro-N-methylacetamide], for which the pEC50 is 6.91. In addition, the Emax under setting [1] was 61%.

Turning to `Cc1nc(-c2ccc3c(c2)OC(F)(F)O3)c(-c2cc(-c3cc(F)c(CO)c(S(C)(=O)=O)c3)ccc2-c2cc(C(F)(F)c3nnco3)nn2C)o1` [Example 51, (4′-(3-(difluoro(1,3,4-oxadiazol-2-yl)methyl)-1-methyl-1H-pyrazol-5-yl)-3′-(4-(2,2-difluorobenzo[d][1,3]dioxol-5-yl)-2-methyloxazol-5-yl)-3-fluoro-5-(methylsulfonyl)biphenyl-4-yl)methanol], the pEC50 was 8.15. Further, the Emax under setting [1] turned out to be 73%.

`Cc1nc(-c2ccc3c(c2)OC(F)(F)O3)c(-c2cc(-c3cc(F)c(CO)c(S(C)(=O)=O)c3)ccc2-c2cc(C(F)(F)c3nnc[nH]3)nn2C)o1` [Example 52, (4′-(3-(difluoro(4H-1,2,4-triazol-3-yl)methyl)-1-methyl-1H-pyrazol-5-yl)-3′-(4-(2,2-difluorobenzo[d][1,3]dioxol-5-yl)-2-methyloxazol-5-yl)-3-fluoro-5-(methylsulfonyl)biphenyl-4-yl)methanol]: the pEC50 was 5.60. Further, under setting [1], the Emax came out at 30%.

Regarding `Cc1nc(-c2ccc(OC(F)(F)F)cc2)c(-c2cc(-c3cccc(S(C)(=O)=O)c3)ccc2-c2cc(C(F)(F)F)nn2C)o1` [Example 53, 2-methyl-5-(4-(1-methyl-3-(trifluoromethyl)-1H-pyrazol-5-yl)-3′-(methylsulfonyl)biphenyl-3-yl)-4-(4-(trifluoromethoxy)phenyl)Oxazole], the negative-log EC50 (pEC50) is 7.34. In addition, the Emax under setting [1] was found to be 94%.

For `Cc1nc(-c2ccc3c(c2)OC(F)(F)O3)c(-c2cc(-c3cccc(S(C)(=O)=O)c3)ccc2-c2cc(C(C)(C)O)nn2C)o1` [Example 54, 2-(5-(3-(4-(2,2-difluorobenzo[d][1,3]dioxol-5-yl)-2-methyloxazol-5-yl)-3′-(methylsulfonyl)biphenyl-4-yl)-1-methyl-1H-pyrazol-3-yl)propan-2-ol], the negative-log EC50 (pEC50) was 6.53. Also, the Emax under setting [1] was 53%.

Regarding `Cc1nc(-c2ccc3c(c2)OC(F)(F)O3)c(-c2cc(-c3cc(F)c(CO)c(S(C)(=O)=O)c3)ccc2-c2cc(C(=O)NC(C)(C)C#N)nn2C)o1` [Example 55, N-(2-cyanopropan-2-yl)-5-(3-(4-(2,2-difluorobenzo[d][1,3]dioxol-5-yl)-2-methyloxazol-5-yl)-3′-fluoro-4′-(hydroxymethyl)-5′-(methylsulfonyl)biphenyl-4-yl)-1-methyl-1H-pyrazole-3-carboxamide], the negative logarithm of the EC50 (pEC50) was 6.12. Moreover, the Emax under setting [1] was 24%.

For `Cc1nc(-c2ccc3c(c2)OC(F)(F)O3)c(-c2cc(-c3cc(F)c(CO)c(S(C)(=O)=O)c3)ccc2-c2cc(C(N)=O)nn2C)o1` [Example 56, 5-(3-(4-(2,2-difluorobenzo[d][1,3]dioxol-5-yl)-2-methyloxazol-5-yl)-3′-fluoro-4′-(hydroxymethyl)-5′-(methylsulfonyl)biphenyl-4-yl)-1-methyl-1H-pyrazole-3-carboxamide], the negative logarithm of the EC50 (pEC50) was 5.96. Besides, under setting [1], the Emax was determined as 35%.

For the compound `Cc1nc(-c2ccc3c(c2)OC(F)(F)O3)c(-c2cc(-c3cc(F)c(CO)c(S(C)(=O)=O)c3)ccc2-c2cc(-c3cnco3)nn2C)o1` [Example 57, (3′-(4-(2,2-difluorobenzo[d][1,3]dioxol-5-yl)-2-methyloxazol-5-yl)-3-fluoro-4′-(1-methyl-3-(oxazol-5-yl)-1H-pyrazol-5-yl)-5-(methylsulfonyl)-[1,1′-biphenyl]-4-yl)methanol], the pEC50 was 6.80. Also, the Emax under setting [1] came out at 18%.

For the compound `Cc1nc(-c2ccc3c(c2)OC(F)(F)O3)c(-c2cc(-c3cc(F)c(CO)c(S(C)(=O)=O)c3)ccc2-c2cc(CC#N)nn2C)o1` [Example 58, 2-(5-(3-(4-(2,2-difluorobenzo[d][1,3]dioxol-5-yl)-2-methyloxazol-5-yl)-3′-fluoro-4′-(hydroxymethyl)-5′-(methylsulfonyl)-[1,1′-biphenyl]-4-yl)-1-methyl-1H-pyrazol-3-yl)acetonitrile], the pEC50 is 7.74. For the same compound, under setting [1], the Emax came out at 94%.

`Cc1nc(-c2ccc3c(c2)OC(F)(F)O3)c(-c2cc(-c3cc(F)c(CO)c(S(C)(=O)=O)c3)ccc2-c2cc([C@H](C)C#N)nn2C)o1` [Example 59, (S)-2-(5-(3-(4-(2,2-difluorobenzo[d][1,3]dioxol-5-yl)-2-methyloxazol-5-yl)-3′-fluoro-4′-(hydroxymethyl)-5′-(methylsulfonyl)-[1,1′-biphenyl]-4-yl)-1-methyl-1H-pyrazol-3-yl)propanenitrile]: the pEC50 is 8.22. Besides, the Emax under setting [1] came to 76%.

Consider `Cc1nc(-c2ccc3c(c2)OC(F)(F)O3)c(-c2cc(-c3cc(F)c(CO)c(S(C)(=O)=O)c3)ccc2-c2cc(C3(C#N)CC3)nn2C)o1` [Example 60, 1-(5-(3-(4-(2,2-difluorobenzo[d][1,3]dioxol-5-yl)-2-methyloxazol-5-yl)-3′-fluoro-4′-(hydroxymethyl)-5′-(methylsulfonyl)-[1,1′-biphenyl]-4-yl)-1-methyl-1H-pyrazol-3-yl)cyclopropanecarbonitrile], for which the pEC50 is 8.15. For the same compound, the Emax under setting [1] is 85%.

On to `Cc1nc(-c2ccc3c(c2)OC(F)(F)O3)c(-c2cc(-c3cc(F)c(CO)c(S(C)(=O)=O)c3)ccc2-c2cc(CC(N)=O)nn2C)o1` [Example 61, 2-(5-(3-(4-(2,2-difluorobenzo[d][1,3]dioxol-5-yl)-2-methyloxazol-5-yl)-3′-fluoro-4′-(hydroxymethyl)-5′-(methylsulfonyl)-[1,1′-biphenyl]-4-yl)-1-methyl-1H-pyrazol-3-yl)acetamide], for which the pEC50 was 6.23. For the same compound, the Emax under setting [1] was determined as 40%.

The record behind these values is US9751869B2, “LXR modulators” (BRISTOL-MYERS SQUIBB COMPANY, priority 2013, dated 2017).
